From the CheMixHub viscosity set

Assay: xn = mol fraction of the nth substance listed

OCC1CC1 + CC(C)CC(C)(C)C
viscosity [mPa·s], 101 kPa
Details | x1 = 0.0991 | x1 = 0.1991 | x1 = 0.3007 | x1 = 0.4013 | x1 = 0.5 | x1 = 0.6004 | x1 = 0.7007 | x1 = 0.8004 | x1 = 0.9002
293.15 K | 0.535 | 0.592 | 0.676 | 0.801 | 0.97 | 1.214 | 1.561 | 2.068 | 2.803
298.15 K | 0.505 | 0.556 | 0.63 | 0.74 | 0.886 | 1.098 | 1.398 | 1.831 | 2.459
303.15 K | 0.476 | 0.522 | 0.587 | 0.684 | 0.811 | 0.997 | 1.257 | 1.632 | 2.168
308.15 K | 0.45 | 0.491 | 0.549 | 0.634 | 0.746 | 0.908 | 1.136 | 1.46 | 1.921
313.15 K | 0.425 | 0.462 | 0.514 | 0.59 | 0.688 | 0.831 | 1.029 | 1.31 | 1.709
318.15 K | 0.396 | 0.431 | 0.478 | 0.546 | 0.633 | 0.759 | 0.934 | 1.181 | 1.527
323.15 K | 0.38 | 0.411 | 0.454 | 0.514 | 0.59 | 0.701 | 0.854 | 1.071 | 1.372

Cc1cccc(O)c1 + O=Cc1ccccc1
308.15 K, 101.33 kPa
Details | viscosity [mPa·s]
x2 = 0.103 | 5.863
x2 = 0.308 | 3.972
x2 = 0.398 | 3.45
x2 = 0.545 | 2.597
x2 = 0.602 | 2.3
x2 = 0.704 | 1.844
x2 = 0.903 | 1.37

CCCCOC(=O)C(C)O (stereo unspecified) + CC(O)CO
101 kPa
Details | viscosity [mPa·s]
293.15 K, x1 = 0.3 | 17.35
293.15 K, x1 = 0.6996 | 6.325
303.15 K, x1 = 0.0999 | 21.45
308.15 K, x1 = 0.3999 | 6.935
323.15 K, x1 = 0.2 | 6.665
323.15 K, x1 = 0.4998 | 3.435

[Br-].[Br-].[Br-].[Sb+3] + CNc1ccccc1
323.15 K, 101 kPa
Details | viscosity [mPa·s]
x1 = 0.25 | 21.03
x1 = 0.333 | 107.7
x1 = 0.4 | 507
x1 = 0.45 | 1423
x1 = 0.5 | 2867
x1 = 0.53 | 3472
x1 = 0.55 | 3692
x1 = 0.57 | 3331
x1 = 0.6 | 2686
x1 = 0.65 | 1275

ClC1CCCCC1 + C1CCOCC1
viscosity [mPa·s], 101.3 kPa
Details | x2 = 0.1031 | x2 = 0.2 | x2 = 0.3037 | x2 = 0.4038 | x2 = 0.4996 | x2 = 0.6036 | x2 = 0.6992 | x2 = 0.8038 | x2 = 0.9034
298.15 K | 1.459 | 1.364 | 1.27 | 1.188 | 1.114 | 1.04 | 0.9774 | 0.9135 | 0.8561
313.15 K | 1.141 | 1.073 | 1.002 | 0.9418 | 0.8879 | 0.8332 | 0.7853 | 0.7364 | 0.6928

C[N+](=O)[O-] + Cc1ccc(C)cc1
293.15 K, 101.33 kPa
Details | viscosity [mPa·s]
x1 = 0.1151 | 0.632
x1 = 0.2724 | 0.628
x1 = 0.4256 | 0.626
x1 = 0.481 | 0.625
x1 = 0.6051 | 0.625
x1 = 0.6915 | 0.626
x1 = 0.794 | 0.627
x1 = 0.8837 | 0.632

Brc1ccc(Br)cc1 + CC(C)O
viscosity [mPa·s], 101 kPa
Details | 298.15 K | 303.15 K | 308.15 K | 313.15 K | 318.15 K
x1 = 0.02851 | 1.945 | 1.682 | 1.476 | 1.307 | 1.16
x1 = 0.04384 | – | 1.663 | 1.47 | 1.291 | 1.142

CCCCC(CC)COP(=O)(O)OCC(CC)CCCC (stereo unspecified) + CO
303.15 K, 101 kPa
Details | viscosity [mPa·s]
x1 = 0.0413 | 1.349
x1 = 0.0751 | 2.075
x1 = 0.1088 | 2.893
x1 = 0.1723 | 4.725
x1 = 0.2681 | 7.099
x1 = 0.3639 | 9.284
x1 = 0.4602 | 11.18
x1 = 0.6161 | 13.99
x1 = 0.7023 | 15.23
x1 = 0.8292 | 17.17
x1 = 0.928 | 18.67

Cc1cccc(O)c1 + C1COCCO1
308.15 K, 101 kPa
Details | viscosity [mPa·s]
x2 = 0.1 | 6.346
x2 = 0.2 | 5.28
x2 = 0.3 | 4.391
x2 = 0.4 | 3.412
x2 = 0.5 | 2.693
x2 = 0.6 | 2.138
x2 = 0.7 | 1.711
x2 = 0.8 | 1.407
x2 = 0.9 | 1.235

CC(=O)c1ccc(C)cc1 + CC#N
308.15 K, 101 kPa
Details | viscosity [mPa·s]
x1 = 0.0872 | 0.3857
x1 = 0.1449 | 0.4411
x1 = 0.2088 | 0.5094
x1 = 0.2823 | 0.5871
x1 = 0.3756 | 0.6989
x1 = 0.4771 | 0.826
x1 = 0.6125 | 1.001
x1 = 0.7811 | 1.235
x1 = 0.9146 | 1.454

C[N+](=O)[O-] + Cc1ccccc1
298.15 K, 101 kPa
Details | viscosity [mPa·s]
x1 = 0.1803 | 0.5448
x1 = 0.3318 | 0.5368
x1 = 0.4595 | 0.5331
x1 = 0.5699 | 0.534
x1 = 0.665 | 0.542
x1 = 0.7483 | 0.5534
x1 = 0.8226 | 0.5683
x1 = 0.888 | 0.5861
x1 = 0.9472 | 0.6066

C[N+](=O)[O-] + COC(C)=O
298.15 K, 101 kPa
Details | viscosity [mPa·s]
x1 = 0.1415 | 0.4094
x1 = 0.271 | 0.4445
x1 = 0.3891 | 0.4757
x1 = 0.498 | 0.5048
x1 = 0.5977 | 0.5313
x1 = 0.6903 | 0.5553
x1 = 0.7763 | 0.5776
x1 = 0.8562 | 0.5968
x1 = 0.9303 | 0.6147

C[N+](=O)[O-] + CS(C)=O
viscosity [mPa·s], 101.3 kPa
Details | x2 = 0.1135 | x2 = 0.117 | x2 = 0.2337 | x2 = 0.2468 | x2 = 0.432 | x2 = 0.4324 | x2 = 0.5837 | x2 = 0.5943 | x2 = 0.812 | x2 = 0.8156
298 K | 0.726 | – | 0.823 | – | 1.014 | – | – | 1.229 | 1.613 | –
318 K | – | 0.5753 | – | 0.6471 | – | 0.7717 | 0.8878 | – | – | 1.12

ClC1CCCCC1 + C1CCOC1
viscosity [mPa·s], 101.3 kPa
Details | x2 = 0.1036 | x2 = 0.2057 | x2 = 0.3029 | x2 = 0.4018 | x2 = 0.5079 | x2 = 0.6003 | x2 = 0.7026 | x2 = 0.8045 | x2 = 0.9032
298.15 K | 1.38 | 1.22 | 1.087 | 0.9655 | 0.8521 | 0.7631 | 0.6748 | 0.5979 | 0.5278
313.15 K | 1.085 | 0.9721 | 0.8761 | 0.7866 | 0.7016 | 0.6344 | 0.5652 | 0.5038 | 0.4475

CCCCC(CC)COP(=O)(O)OCC(CC)CCCC (stereo unspecified) + CCCCO
303.15 K, 101 kPa
Details | viscosity [mPa·s]
x1 = 0.0419 | 2.97
x1 = 0.0842 | 3.693
x1 = 0.1206 | 4.321
x1 = 0.2162 | 6.156
x1 = 0.3122 | 8.132
x1 = 0.4528 | 11.18
x1 = 0.5519 | 12.85
x1 = 0.6567 | 14.57
x1 = 0.761 | 16.12
x1 = 0.8628 | 17.52
x1 = 0.9345 | 18.4

Cc1cccc(O)c1 + C1CCCCC1
308.15 K, 101 kPa
Details | viscosity [mPa·s]
x1 = 0.0832 | 0.8736
x1 = 0.289 | 1.288
x1 = 0.3627 | 1.541
x1 = 0.4467 | 1.863
x1 = 0.5201 | 2.175
x1 = 0.5859 | 2.547
x1 = 0.7213 | 3.745
x1 = 0.8473 | 5.244
x1 = 0.9032 | 6.428
